According to US20150209315A1 (Cumberland Pharmaceuticals, priority 2009, published 2015):

How the values were obtained:
Type in all cases: in vivo, human
[1] = test system: fever in hospitalized patients; assay: Clinical trials of intravenous ibuprofen for fever
[2] = test system: post-operative adult patients; assay: Example 1: time to GI motility, ambulation, liquid/solid intake, length of hospital stay; conditions: for Time to GI motility: value + SD
[3] = test system: post-operative adult patients; assay: Example 1: patient self-assessment of pain, VAS with movement; parameters: key to VAS Score measured with Movement (median): VAS 0-10: 0 = no pain, 10 = intense pain; conditions: 400 mg
Method: Pain was measured by the patient's self-assessment using a Visual Analog Scale (VAS) from 0-10 with 0 being no pain and 10 being intense pain. This was measured both at rest and with movement. […] […] To account for the missing pain assessments, two missing value approaches as described in the statistical analysis plan were used to impute values. To determine the difference in overall pain at differing time-points, the area under the VAS pain curve during the first 24 hours, between 6 and 24 hours and between 12 and 24 hours were analyzed.

Compound: CC(C)Cc1ccc(C(C)C(=O)O)cc1 (centres unmarked) [Ibuprofen, 2-(4-isobutylphenyl) propionic acid]
- treated patients with reduced fever ([1]; at 4 hours): 100%
- placebo-treated vs IV Ibuprofen treated patients with uncontrolled fever ([1]; at 24 hours): ~4 times
- reduction in temperature ([1]; critically ill patients, 48-hour study period): Significant reduction in temperature was maintained
- acetaminophen requirement and fever control vs acetaminophen alone ([1]; critically ill patients, subset analysis): required less acetaminophen and had better fever control
- Rapid fever reduction seen as fast as ([1]; malaria patients): 30 min
- patients with significant fever reduction ([1]; phase 3 clinical trial, within 4 hours, vs 32% with placebo): 77%
- Time to GI motility ([2]; 400 mg, EEP): 20.2+1.30 hours
- Time to GI motility ([2]; 400 mg, ITT): 20.1+1.28 hours
- Time to GI motility ([2]; 800 mg, EEP): 21.2+1.63 hours
- Time to GI motility ([2]; 800 mg, ITT): 21.6+1.50 hours
- time to liquid intake vs placebo ([2]; ibuprofen treated group, ITT): not found to be statistically significant
- time to solid intake vs placebo ([2]; ibuprofen treated group, ITT): not found to be statistically significant
- Time to ambulation vs placebo ([2]; ibuprofen treated groups, ITT): found not to be statistically significant faster
- Length of hospital stay vs placebo ([2]; treated groups, ITT): not found to be statistically significant
- VAS Score measured with Movement (median) ([3]; EEP, 1-Hour): 7.5
- VAS Score measured with Movement, % Reduction vs Placebo ([3]; EEP, 1-Hour): 6.2%
- VAS Score measured with Movement (median) ([3]; EEP, 2-Hour): 7.2
- VAS Score measured with Movement, % Reduction vs Placebo ([3]; EEP, 2-Hour): −1.4%
- VAS Score measured with Movement (median) ([3]; EEP, 3-Hour): 6.2
- VAS Score measured with Movement, % Reduction vs Placebo ([3]; EEP, 3-Hour): −3.3%
- VAS Score measured with Movement (median) ([3]; EEP, 6-Hour): 5.7
- VAS Score measured with Movement, % Reduction vs Placebo ([3]; EEP, 6-Hour): −14.0%
- VAS Score measured with Movement (median) ([3]; EEP, 9-Hour): 4.8
- VAS Score measured with Movement, % Reduction vs Placebo ([3]; EEP, 9-Hour): 4.0%
- VAS Score measured with Movement (median) ([3]; EEP, 12-Hour): 4.5
- VAS Score measured with Movement, % Reduction vs Placebo ([3]; EEP, 12-Hour): 10.0%
- VAS Score measured with Movement (median) ([3]; EEP, 15-Hour): 4.0
- VAS Score measured with Movement, % Reduction vs Placebo ([3]; EEP, 15-Hour): 20.0%
- VAS Score measured with Movement (median) ([3]; EEP, 18-Hour): 4.3
- VAS Score measured with Movement, % Reduction vs Placebo ([3]; EEP, 18-Hour): 14.0%
- VAS Score measured with Movement (median) ([3]; EEP, 21-Hour): 4.0
- VAS Score measured with Movement, % Reduction vs Placebo ([3]; EEP, 21-Hour): 20.0%
- VAS Score measured with Movement (median) ([3]; EEP, 24-Hour): 5.0
- VAS Score measured with Movement, % Reduction vs Placebo ([3]; EEP, 24-Hour): −13.6%
- VAS Score measured with Movement (median) ([3]; EEP, 27-Hour): 4.6
- VAS Score measured with Movement, % Reduction vs Placebo ([3]; EEP, 27-Hour): −2.2%
- VAS Score measured with Movement (median) ([3]; EEP, 30-Hour): 4.0
- VAS Score measured with Movement, % Reduction vs Placebo ([3]; EEP, 30-Hour): 2.4%
- VAS Score measured with Movement (median) ([3]; EEP, 33-Hour): 3.9
- VAS Score measured with Movement, % Reduction vs Placebo ([3]; EEP, 33-Hour): −2.6%
- VAS Score measured with Movement (median) ([3]; EEP, 36-Hour): 3.6
- VAS Score measured with Movement, % Reduction vs Placebo ([3]; EEP, 36-Hour): 7.7%
- VAS Score measured with Movement (median) ([3]; EEP, 39-Hour): 3.1
- VAS Score measured with Movement, % Reduction vs Placebo ([3]; EEP, 39-Hour): 8.8%
- VAS Score measured with Movement (median) ([3]; EEP, 42-Hour): 3.3
- VAS Score measured with Movement, % Reduction vs Placebo ([3]; EEP, 42-Hour): 5.7%
- VAS Score measured with Movement (median) ([3]; EEP, 45 Hour): 3.3
- VAS Score measured with Movement, % Reduction vs Placebo ([3]; EEP, 45 Hour): −6.5%
- VAS Score measured with Movement (median) ([3]; EEP, 48-Hour): 3.2
- VAS Score measured with Movement, % Reduction vs Placebo ([3]; EEP, 48-Hour): −33.3%
- VAS Score measured with Movement (median) ([3]; ITT, 1-Hour): 7.5
- VAS Score measured with Movement, % Reduction vs Placebo ([3]; ITT, 1-Hour): 6.2%
- VAS Score measured with Movement (median) ([3]; ITT, 2-Hour): 7.4
- VAS Score measured with Movement, % Reduction vs Placebo ([3]; ITT, 2-Hour): −1.4%
- VAS Score measured with Movement (median) ([3]; ITT, 3-Hour): 6.3
- VAS Score measured with Movement, % Reduction vs Placebo ([3]; ITT, 3-Hour): 0.0%
- VAS Score measured with Movement (median) ([3]; ITT, 6-Hour): 5.7
- VAS Score measured with Movement, % Reduction vs Placebo ([3]; ITT, 6-Hour): 0.0%
- VAS Score measured with Movement (median) ([3]; ITT, 9-Hour): 4.7
- VAS Score measured with Movement, % Reduction vs Placebo ([3]; ITT, 9-Hour): 9.6%
- VAS Score measured with Movement (median) ([3]; ITT, 12-Hour): 4.5
- VAS Score measured with Movement, % Reduction vs Placebo ([3]; ITT, 12-Hour): 10.0%
- VAS Score measured with Movement (median) ([3]; ITT, 15-Hour): 3.9
- VAS Score measured with Movement, % Reduction vs Placebo ([3]; ITT, 15-Hour): 22.0%
- VAS Score measured with Movement (median) ([3]; ITT, 18-Hour): 4.3
- VAS Score measured with Movement, % Reduction vs Placebo ([3]; ITT, 18-Hour): 14.0%
- VAS Score measured with Movement (median) ([3]; ITT, 21-Hour): 4.1
- VAS Score measured with Movement, % Reduction vs Placebo ([3]; ITT, 21-Hour): 16.3%
- VAS Score measured with Movement (median) ([3]; ITT, 24-Hour): 4.6
- VAS Score measured with Movement, % Reduction vs Placebo ([3]; ITT, 24-Hour): −2.2%
- VAS Score measured with Movement (median) ([3]; ITT, 27 Hour): 4.6
- VAS Score measured with Movement, % Reduction vs Placebo ([3]; ITT, 27 Hour): −4.5%
- VAS Score measured with Movement (median) ([3]; ITT, 30-Hour): 4.0
- VAS Score measured with Movement, % Reduction vs Placebo ([3]; ITT, 30-Hour): 0.0%
